Values quoted from earlier work in patent publication US11980625B2, “Ganaxolone for use in treating tuberous sclerosis complex” (Marinus Pharmaceuticals, Inc., priority 2019, dated 2024).
Where two headings read alike, the source gives them in different places.

What was measured:
[1] = human plasma; cited from earlier work
[2] = test system: patients with TSC-related epilepsy; conditions: 18 weeks, cited from earlier work
[3] = test system: patients with TSC-related epilepsy; conditions: Phase 2, open-label, 3 months; cited from earlier work
[4] = test system: patients with TSC-related epilepsy; conditions: 16 weeks, cited from earlier work

## CC(=O)[C@H]1CC[C@H]2[C@@H]3CC[C@H]4C[C@H](O)CC[C@]4(C)[C@H]3CC[C@]12C [Allopregnanolone, 3α,5α-tetrahydroprogesterone, reference compound]
[1]
  half-life: about 45 minutes

## CO[C@H]1C[C@@H]2CC[C@@H](C)[C@@](O)(O2)C(=O)C(=O)N2CCCC[C@H]2C(=O)O[C@H]([C@H](C)C[C@@H]2CC[C@@H](OCCO)[C@H](OC)C2)CC(=O)[C@H](C)/C=C(\C)[C@@H](O)[C@@H](OC)C(=O)[C@H](C)C[C@H](C)/C=C/C=C/C=C/1C [AFINITOR ®]
[2]; Phase 3, High-exposure
  Median % change in seizure freq (Drug Response): High-exposure: −39.6%
[2]; Phase 3, Low-exposure
  Median % change in seizure freq (Drug Response): Low-exposure: −29.3%

## C=C(C)[C@@H]1CCC(C)=C[C@H]1c1c(O)cc(CCCCC)cc1O [EPIDIOLEX ®]
[3]
  Median % change in seizure freq (Drug Response): −48.8%
[4]; Phase 3, 25 mg/kg/day
  Median % change in seizure freq (Drug Response): 25 mg/kg/day: −48.6%
[4]; Phase 3, High-exposure
  Median % change in seizure freq (Drug Response): High-exposure: −47.5%
